# Reference: ChEMBL document CHEMBL1153038, “Eusynstyelamides A, B, and C, nNOS inhibitors, from the ascidian Eusynstyela latericius” (J Nat Prod, 2009)
# Key:
# [1] = test system: HCT-116; assay: Cytotoxicity against human HCT116 cells; assay type: functional, cell-based
# [2] = target: Nitric oxide synthase 1 (Rattus norvegicus, UniProt P29476); assay: Inhibition of rat cerebella nNOS synthase assessed as [3H]arginine to [3H]citrulline conversion by microbeta scintillation counting
# [3] = test system: SF-268; assay: Cytotoxicity against human SF268 cells upto […] by SRB assay; assay type: functional, cell-based
# [4] = test system: Staphylococcus aureus; assay: Antibacterial activity against Staphylococcus aureus after 24 hrs by microtiter dilution assay; assay type: functional, organism-based
# [5] = test system: MCF7; assay: Cytotoxicity against human MCF7 cells upto […] by SRB assay; assay type: functional, cell-based
# [6] = test system: NCI-H460; assay: Cytotoxicity against human H460 cells upto […] by SRB assay; assay type: functional, cell-based
# Nitric oxide synthase 1, sequence (P29476 whole entry): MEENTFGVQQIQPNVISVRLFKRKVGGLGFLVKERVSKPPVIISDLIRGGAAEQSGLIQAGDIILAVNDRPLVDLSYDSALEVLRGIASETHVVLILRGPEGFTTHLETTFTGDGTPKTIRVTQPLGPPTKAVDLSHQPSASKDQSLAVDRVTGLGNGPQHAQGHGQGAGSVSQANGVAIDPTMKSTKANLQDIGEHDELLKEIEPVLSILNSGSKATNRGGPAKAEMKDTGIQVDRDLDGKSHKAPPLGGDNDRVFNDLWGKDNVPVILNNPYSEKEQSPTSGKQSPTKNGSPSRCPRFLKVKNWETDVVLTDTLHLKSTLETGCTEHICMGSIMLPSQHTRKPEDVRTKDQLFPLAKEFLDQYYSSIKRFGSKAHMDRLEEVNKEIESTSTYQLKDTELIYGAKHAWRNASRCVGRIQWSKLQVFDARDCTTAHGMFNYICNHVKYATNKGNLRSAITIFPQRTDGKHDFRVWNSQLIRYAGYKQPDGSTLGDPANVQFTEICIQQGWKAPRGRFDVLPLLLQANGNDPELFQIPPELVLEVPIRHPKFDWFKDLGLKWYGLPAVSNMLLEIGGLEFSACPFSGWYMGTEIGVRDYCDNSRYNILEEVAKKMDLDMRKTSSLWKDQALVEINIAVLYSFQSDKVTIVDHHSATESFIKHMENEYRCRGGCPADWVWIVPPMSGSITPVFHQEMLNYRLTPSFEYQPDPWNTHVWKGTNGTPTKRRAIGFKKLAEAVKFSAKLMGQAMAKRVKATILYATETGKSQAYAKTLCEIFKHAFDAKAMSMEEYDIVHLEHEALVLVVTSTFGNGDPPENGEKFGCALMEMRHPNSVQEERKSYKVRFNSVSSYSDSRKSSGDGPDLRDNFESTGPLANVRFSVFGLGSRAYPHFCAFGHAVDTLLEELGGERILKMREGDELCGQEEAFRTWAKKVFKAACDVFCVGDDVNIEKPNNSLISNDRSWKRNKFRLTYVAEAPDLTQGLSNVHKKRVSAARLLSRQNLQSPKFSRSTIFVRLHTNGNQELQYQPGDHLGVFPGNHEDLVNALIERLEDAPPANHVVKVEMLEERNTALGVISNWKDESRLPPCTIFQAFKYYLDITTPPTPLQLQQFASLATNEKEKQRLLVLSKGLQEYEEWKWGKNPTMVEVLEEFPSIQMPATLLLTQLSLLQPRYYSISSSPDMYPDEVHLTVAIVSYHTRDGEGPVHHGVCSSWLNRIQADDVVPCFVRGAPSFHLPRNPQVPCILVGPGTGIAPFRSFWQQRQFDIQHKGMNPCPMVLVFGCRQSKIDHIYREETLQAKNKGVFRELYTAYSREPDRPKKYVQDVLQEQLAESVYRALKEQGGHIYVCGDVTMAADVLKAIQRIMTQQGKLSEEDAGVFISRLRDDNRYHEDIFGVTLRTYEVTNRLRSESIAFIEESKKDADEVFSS
SMILES,IC50 [1],IC50 [2],Activity [3],IC50 [4],Activity [5],Activity [6]
O=Cc1cc(O)c2nccc3c2c1Nc1ccccc1-3 [STYELSAMINE C],1.6 µM,,,,,
NCC(O)c1cc(O)c2nccc3c2c1Nc1ccccc1-3 (centres undefined) [STYELSAMINE A],1.6 µM,,,,,
CC(=O)NCCc1cc(O)c2nccc3c2c1Nc1ccccc1-3 [STYELSAMINE B],1.6 µM,,,,,
N=C(N)NCCCCNC(=O)[C@]1(O)[C@H](c2c[nH]c3cc(Br)ccc23)[C@@](O)(Cc2c[nH]c3cc(Br)ccc23)C(=O)N1CCCCNC(=N)N,,41.7 µM,Not toxic,19 µM,Not toxic,Not toxic
N=C(N)NCCCCNC(=O)[C@@]1(O)[C@H](c2c[nH]c3cc(Br)ccc23)[C@](O)(Cc2c[nH]c3cc(Br)ccc23)C(=O)N1CCCCNC(=N)N,,5.8 µM,Not toxic,,Not toxic,Not toxic
NCCc1cc(O)c2nccc3c2c1Nc1ccccc1-3 [STYELSAMINE D],1.6 µM,,,,,
N=C(N)NCCCCNC(=O)[C@@]1(O)[C@H](c2c[nH]c3cc(Br)ccc23)[C@@](O)(Cc2c[nH]c3cc(Br)ccc23)C(=O)N1CCCCNC(=N)N,,4.3 µM,Not toxic,6.5 µM,Not toxic,Not toxic
N=C(N)NCCCCNC(=O)C(O)(O)C(c1c[nH]c2cc(Br)ccc12)C(O)(Cc1c[nH]c2cc(Br)ccc12)C(=O)NCCCCNC(=N)N (centres undefined) [EUSYNSTYELAMIDE],100 µM,,,,,
